Structures can show the parent of a compound that is named as a salt.
Assays:
mice [1] = assay: Muscle relaxant activity: slant test; type: in vivo, male dd mice
Experimental: (§1) Groups of 5 male dd mice weighing 19-21 g were used. The mice which remained for a period of 3 min. on a 3 cm diameter rod rotating at 5 r.p.m. were selected and tested to determine the muscle relaxant activity at 1, 2 and 4 hr. after drug administration. The methods employed are as follows.
Each mouse was mounted on a 45°-inclined wire netting to examine whether it fell off or not.
(§2) In each test, the compound was considered to have the muscle relaxant activity when the mice fell off.

mice [2] = assay: Muscle relaxant activity: traction test; type: in vivo, male dd mice
Experimental: as §1
Forefeet of each mouse were placed on a wire to examine whether it fell off or not.
as §2

[3] = system: tonic extensor seizures in mice (electroshock); assay: Maximal electroshock convulsion test; type: in vivo, male dd mice; settings: 100 mg/Kg p.o., 1 hr before shock; blocking tonic extensor seizures
Experimental: (§3) Anticonvulsant activity was determined according to the following three methods.
Groups of 10 male dd mice weighing 22-24 g were used. The drugs were orally administered and one hr. later, the mice were subjected to an electric current (2000 V, 50 mA) for 0.2 sec. through corneal electrodes. Drug activity is expressed as the percent blocking tonic extensor seizures.

[4] = system: clonic seizures in mice (pentetrazol); assay: Pentetrazol convulsion test; type: in vivo, male dd mice; settings: 1 hr before pentetrazol 120 mg/kg s.c.
Experimental: as §3
Groups of 10 male dd mice weighing 19-21 g were used. The drugs were orally administered and one hr. later, pentetrazol was injected subcutaneously at 120 mg/kg. Drug activity is expressed as the percent blocking clonic seizures.

[5] = system: tonic extensor seizures in mice (strychnine); assay: Strychnine convulsion test; type: in vivo, male dd mice; settings: 1 hr before strychnine 2 mg/kg s.c.
Experimental: as §3
Groups of 10 male dd mice weighing 19-21 g were used. The drugs were orally administered and one hr. later, strychnine was injected subcutaneously at 2 mg/kg. Drug activity is expressed as the percent blocking tonic extensor seizures.

mice [6] = assay: Muscle relaxant activity: rotating rod test; type: in vivo, male dd mice
Experimental: as §1
Each mouse was mounted on a rotating rod to examine whether it fell off or not within 2 min.
as §2

[7] = system: acetic acid writhing in mice; assay: Analgesic activity: acetic acid writhing; type: in vivo, male dd mice; settings: number of writhes vs control
Experimental: Groups of 10 male dd mice weighing 19-21 g were used. One hr. after drug administration, 0.2 ml of a 0.7% aqueous solution of acetic acid was injected intraperitoneally. Ten min. after acetic acid injection, the number of writhes was counted for each mouse during the following 10 min. Drug activity is expressed as the percent inhibition of the number of writhes in the control group.

[8] = Acute toxicity, oral, mice; settings: mouse, in vivo, p.o., 7 days mortality
Experimental: (§4) Male dd mice weighing 19-21 g and male Wistar rats weighing 170-190 g were used in groups of 3-6 animals. The drugs were suspended in a 0.3% carboxymethyl cellulose solution and administered orally. […] As the reference compound, benzydamine.HCl was dissolved in water and administered orally. (In Example, 6, 7 and 8, the drugs and benzydamine. HCl were also administered in the same manner.

[9] = system: carrageenin hind paw edema in rats; assay: Anti-inflammatory activity: carrageenin paw edema; type: in vivo, male Wistar rats; settings: edema 3 hr after carrageenin, vs control
Experimental: Groups of 5 male Wistar rats weighing 130-150 g were used. One hr. after drug administration, 0.1 ml of a 1% aqueous suspension of carrageenin was injected into the plantar surface of the right hind paw. The volume of the injected paw was measured before and 3 hr. after carrageenin injection by mercury displacement. Drug activity is expressed as the percent difference between the test and control groups' edema.

[10] = Acute toxicity, oral, rats; settings: rat, in vivo, p.o., 7 days mortality
Experimental: as §4

[11] = 300 mg/kg p.o., 1 hr after administration
[12] = 300 mg/kg p.o., 2 hr after administration
[13] = 300 mg/kg p.o., 4 hr after administration
[14] = 200 mg/kg p.o., 1 hr after administration
[15] = 200 mg/kg p.o., 2 hr after administration
[16] = 200 mg/kg p.o., 4 hr after administration

| Compound | No. of falling mice/five tested mice, slant test (mice [1]; [11]) [mice/five tested mice] | No. of falling mice/five tested mice, slant test (mice [1]; [12]) [mice/five tested mice] | No. of falling mice/five tested mice, slant test (mice [1]; [13]) [mice/five tested mice] | No. of falling mice/five tested mice, traction test (mice [2]; [11]) [mice/five tested mice] | No. of falling mice/five tested mice, traction test (mice [2]; [12]) [mice/five tested mice] | No. of falling mice/five tested mice, traction test (mice [2]; [13]) [mice/five tested mice] | % Inhibition, Maximal Electroshock Test [3] [%] | % Inhibition, Pentetrazole Convulsion Test ([4]; 150 mg/Kg p.o.) [%] | % Inhibition, Strychnine Convulsion Test ([5]; 300 mg/Kg p.o.) [%] | No. of falling mice/five tested mice, rotating rod test (mice [6]; [11]) [mice/five tested mice] | No. of falling mice/five tested mice, rotating rod test (mice [6]; [12]) [mice/five tested mice] | No. of falling mice/five tested mice, rotating rod test (mice [6]; [13]) [mice/five tested mice] | Analgesic Activity, % Inhibition ([7]; 150 mg/Kg p.o.) [%] | LD50 at 168 h [8] [mg/kg] | Anti-inflammatory Activity, % Inhibition ([9]; 300 mg/Kg p.o.) [%] | LD50 at 168 h [10] [mg/kg] | further results |
| --- | --- | --- | --- | --- | --- | --- | --- | --- | --- | --- | --- | --- | --- | --- | --- | --- | --- |
| COc1ccc2oc(CC(=O)N(C)C)c(C)c2c1 [A, 2-dimethylcarbamoylmethyl-3-methyl-5 methoxybenzo[b]furan] | 3 | 1.5 | 0 | 2 | 2 | 0 | 30 | 40 | 60 | 5 | 3 | 1 | 83.6 | > 1000 | 23.3 | – | – |
| Cc1ccc2oc(CC(=O)N(C)C)c(C)c2c1 [B, 2-dimethylcarbamoylmethyl-3,5-dimethylbenzo[b]furan] | 5 | 4 | 0 | 5 | 5 | 0 | 80 | 90 | 88 | 5 | 5 | 0 | 24.0 | > 3000 | 10.2 | > 3000 | – |
| CN(C)CCCOc1nn(Cc2ccccc2)c2ccccc12 [Benzydamine . HCl, reference compound] | – | – | – | – | – | – | 100 | – | – | – | – | – | – | 500 to 1000 | – | > 1500 | No. of falling mice/five tested mice, slant test (mice [1]; [14]): 2 mice/five tested mice; No. of falling mice/five tested mice, slant test (mice [1]; [15]): 1 mice/five tested mice; No. of falling mice/five tested mice, slant test (mice [1]; [16]): 0 mice/five tested mice; No. of falling mice/five tested mice, traction test (mice [2]; [14]): 0 mice/five tested mice; No. of falling mice/five tested mice, traction test (mice [2]; [15]): 0 mice/five tested mice; No. of falling mice/five tested mice, traction test (mice [2]; [16]): 0 mice/five tested mice; % Inhibition, Pentetrazole Convulsion Test ([4]; 200 mg/Kg p.o.): 0%; % Inhibition, Strychnine Convulsion Test ([5]; 100 mg/Kg p.o.): 70%; No. of falling mice/five tested mice, rotating rod test (mice [6]; [14]): 4 mice/five tested mice; No. of falling mice/five tested mice, rotating rod test (mice [6]; [15]): 2 mice/five tested mice; No. of falling mice/five tested mice, rotating rod test (mice [6]; [16]): 0 mice/five tested mice; Analgesic Activity, % Inhibition ([7]; 400 mg/Kg p.o.): 95.2%; Anti-inflammatory Activity, % Inhibition ([9]; 400 mg/Kg p.o.): 20.9% |
| Cc1c(CC(=O)N(C)C)oc2ccc(-c3ccccc3)cc12 [C, 2-dimethylcarbamoylmethyl-3-methyl-5-phenylbenzo[b]furan] | 1.5 | 1.5 | 0 | 2 | 3 | 0 | 100 | 30 | 70 | 3 | 3 | 0 | 48.4 | > 1000 | 20.4 | – | – |
| Cc1c(CC(=O)N(C)C)oc2ccc(F)cc12 [D, 2-dimethylcarbamoylmethyl-3-methyl-5-fluorobenzo[b]furan] | 4.5 | 4.5 | 1 | 5 | 5 | 1 | 85 | 80 | 57 | 5 | 5 | 2 | 32.9 | > 1000 | 31.2 | – | – |

Reference: patent US4297369A, “Certain muscle relaxant 3-methyl-2-benzofuran acetamides” (Kyowa Hakko Kogyo Co., Ltd., priority 1979, dated 1981)
